{"source": "the supplement of paper PMC10307832", "test_in_all_cases": "relative viability (nuclei count vs DMSO), 5 days (fraction); higher = more cells survive", "key": {"NCI-H460": {"test_system": "NCI-H460", "procedure,_shortened": "(§1)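 Relative viability is defined as nuclei in treated wells over nuclei in vehicle wells. Duplicate plates were run and medians reported. Lung cancer cell lines in 1536-well plates were dosed by pin tool one day after seeding, with one drug or with a fixed anchor-drug dose plus five library-drug doses (not always all listed) in √10 steps, and nuclei were counted after 5 days.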"}, "NCI-H727": {"test_system": "NCI-H727", "procedure,_shortened": "as §1"}, "LCLC-97TM1": {"test_system": "LCLC-97TM1", "procedure,_shortened": "as §1"}, "NCI-H2347": {"test_system": "NCI-H2347", "procedure,_shortened": "as §1"}, "H3255": {"test_system": "H3255", "procedure,_shortened": "as §1"}, "NCI-H650": {"test_system": "NCI-H650", "procedure,_shortened": "as §1"}, "LK-2": {"test_system": "LK-2", "procedure,_shortened": "as §1"}, "NCI-H1563": {"test_system": "NCI-H1563", "procedure,_shortened": "as §1"}, "COR-L23": {"test_system": "COR-L23", "procedure,_shortened": "as §1"}, "201T": {"test_system": "201T", "procedure,_shortened": "as §1"}, "PC-3 [JPC-3]": {"test_system": "PC-3 [JPC-3]", "procedure,_shortened": "as §1"}, "A-427": {"test_system": "A-427", "procedure,_shortened": "as §1"}, "NCI-H23": {"test_system": "NCI-H23", "procedure,_shortened": "as §1"}, "NCI-H1944": {"test_system": "NCI-H1944", "procedure,_shortened": "as §1"}, "NCI-H1650": {"test_system": "NCI-H1650", "procedure,_shortened": "as §1"}, "NCI-H838": {"test_system": "NCI-H838", "procedure,_shortened": "as §1"}, "PC-14": {"test_system": "PC-14", "procedure,_shortened": "as §1"}, "NCI-H1793": {"test_system": "NCI-H1793", "procedure,_shortened": "as §1"}, "LU99A": {"test_system": "LU99A", "procedure,_shortened": "as §1"}, "SW 1573": {"test_system": "SW 1573", "procedure,_shortened": "as §1"}, "HCC-44": {"test_system": "HCC-44", "procedure,_shortened": "as §1"}}}
{"smiles": "C=C1C(=O)O[C@@H](CCCCCCCC)[C@@H]1C(=O)O", "note": "[C-75] + CS(=O)(=O)CCNCc1ccc(-c2ccc3ncnc(Nc4ccc(OCc5cccc(F)c5)c(Cl)c4)c3c2)o1 [Lapatinib] (partner 2 µM)", "values": [{"measurement": "relative viability", "setting": "NCI-H460; first compound 0.08 µM", "result": 0.951}, {"measurement": "relative viability", "setting": "NCI-H460; first compound 0.253 µM", "result": 1.38}, {"measurement": "relative viability", "setting": "NCI-H460; first compound 0.8 µM", "result": 0.847}, {"measurement": "relative viability", "setting": "NCI-H460; first compound 8 µM", "result": 0.884}, {"measurement": "relative viability", "setting": "NCI-H727; first compound 0.08 µM", "result": 0.881}, {"measurement": "relative viability", "setting": "NCI-H727; first compound 0.253 µM", "result": 1.54}, {"measurement": "relative viability", "setting": "NCI-H727; first compound 0.8 µM", "result": 0.711}, {"measurement": "relative viability", "setting": "NCI-H727; first compound 2.53 µM", "result": 0.841}, {"measurement": "relative viability", "setting": "NCI-H727; first compound 8 µM", "result": 1.22}, {"measurement": "relative viability", "setting": "LCLC-97TM1; first compound 0.08 µM", "result": 0.684}, {"measurement": "relative viability", "setting": "LCLC-97TM1; first compound 0.253 µM", "result": 1.67}, {"measurement": "relative viability", "setting": "LCLC-97TM1; first compound 0.8 µM", "result": 0.881}, {"measurement": "relative viability", "setting": "LCLC-97TM1; first compound 2.53 µM", "result": 0.555}, {"measurement": "relative viability", "setting": "LCLC-97TM1; first compound 8 µM", "result": 0.543}, {"measurement": "relative viability", "setting": "NCI-H2347; first compound 0.08 µM", "result": 0.862}, {"measurement": "relative viability", "setting": "NCI-H2347; first compound 0.253 µM", "result": 0.94}, {"measurement": "relative viability", "setting": "NCI-H2347; first compound 0.8 µM", "result": 0.965}, {"measurement": "relative viability", "setting": "NCI-H2347; first compound 2.53 µM", "result": 0.828}, {"measurement": "relative viability", "setting": "NCI-H2347; first compound 8 µM", "result": 1.02}, {"measurement": "relative viability", "setting": "H3255; first compound 0.08 µM", "result": 0.277}, {"measurement": "relative viability", "setting": "H3255; first compound 0.253 µM", "result": 0.314}, {"measurement": "relative viability", "setting": "H3255; first compound 0.8 µM", "result": 0.254}, {"measurement": "relative viability", "setting": "H3255; first compound 2.53 µM", "result": 0.21}, {"measurement": "relative viability", "setting": "H3255; first compound 8 µM", "result": 0.274}, {"measurement": "relative viability", "setting": "NCI-H650; first compound 0.08 µM", "result": 1.02}, {"measurement": "relative viability", "setting": "NCI-H650; first compound 0.253 µM", "result": 0.86}, {"measurement": "relative viability", "setting": "NCI-H650; first compound 0.8 µM", "result": 0.803}, {"measurement": "relative viability", "setting": "NCI-H650; first compound 2.53 µM", "result": 0.855}, {"measurement": "relative viability", "setting": "NCI-H650; first compound 8 µM", "result": 0.826}, {"measurement": "relative viability", "setting": "LK-2; first compound 0.08 µM", "result": 1.03}, {"measurement": "relative viability", "setting": "LK-2; first compound 0.253 µM", "result": 1.15}, {"measurement": "relative viability", "setting": "LK-2; first compound 0.8 µM", "result": 1.08}, {"measurement": "relative viability", "setting": "LK-2; first compound 2.53 µM", "result": 0.744}, {"measurement": "relative viability", "setting": "LK-2; first compound 8 µM", "result": 0.622}, {"measurement": "relative viability", "setting": "NCI-H1563; first compound 0.08 µM", "result": 0.886}, {"measurement": "relative viability", "setting": "NCI-H1563; first compound 0.253 µM", "result": 0.979}, {"measurement": "relative viability", "setting": "NCI-H1563; first compound 0.8 µM", "result": 0.881}, {"measurement": "relative viability", "setting": "NCI-H1563; first compound 2.53 µM", "result": 0.998}, {"measurement": "relative viability", "setting": "NCI-H1563; first compound 8 µM", "result": 1}, {"measurement": "relative viability", "setting": "COR-L23; first compound 0.08 µM", "result": 0.868}, {"measurement": "relative viability", "setting": "COR-L23; first compound 0.253 µM", "result": 0.94}, {"measurement": "relative viability", "setting": "COR-L23; first compound 0.8 µM", "result": 0.919}, {"measurement": "relative viability", "setting": "COR-L23; first compound 2.53 µM", "result": 0.469}, {"measurement": "relative viability", "setting": "COR-L23; first compound 8 µM", "result": 1.01}, {"measurement": "relative viability", "setting": "201T; first compound 0.08 µM", "result": 1}, {"measurement": "relative viability", "setting": "201T; first compound 0.253 µM", "result": 1.2}, {"measurement": "relative viability", "setting": "201T; first compound 0.8 µM", "result": 0.959}, {"measurement": "relative viability", "setting": "201T; first compound 2.53 µM", "result": 0.886}, {"measurement": "relative viability", "setting": "201T; first compound 8 µM", "result": 1.05}, {"measurement": "relative viability", "setting": "PC-3 [JPC-3]; first compound 0.08 µM", "result": 0.449}, {"measurement": "relative viability", "setting": "PC-3 [JPC-3]; first compound 0.253 µM", "result": 0.528}, {"measurement": "relative viability", "setting": "PC-3 [JPC-3]; first compound 0.8 µM", "result": 0.405}, {"measurement": "relative viability", "setting": "PC-3 [JPC-3]; first compound 2.53 µM", "result": 0.485}, {"measurement": "relative viability", "setting": "PC-3 [JPC-3]; first compound 8 µM", "result": 0.478}, {"measurement": "relative viability", "setting": "A-427; first compound 0.08 µM", "result": 1.01}, {"measurement": "relative viability", "setting": "A-427; first compound 0.253 µM", "result": 1.07}, {"measurement": "relative viability", "setting": "A-427; first compound 0.8 µM", "result": 1.02}, {"measurement": "relative viability", "setting": "A-427; first compound 2.53 µM", "result": 0.997}, {"measurement": "relative viability", "setting": "A-427; first compound 8 µM", "result": 1.01}, {"measurement": "relative viability", "setting": "NCI-H23; first compound 0.08 µM", "result": 1.16}, {"measurement": "relative viability", "setting": "NCI-H23; first compound 0.253 µM", "result": 1.34}, {"measurement": "relative viability", "setting": "NCI-H23; first compound 0.8 µM", "result": 0.83}, {"measurement": "relative viability", "setting": "NCI-H23; first compound 2.53 µM", "result": 0.851}, {"measurement": "relative viability", "setting": "NCI-H23; first compound 8 µM", "result": 0.546}, {"measurement": "relative viability", "setting": "NCI-H1944; first compound 0.08 µM", "result": 0.792}, {"measurement": "relative viability", "setting": "NCI-H1944; first compound 0.253 µM", "result": 0.755}, {"measurement": "relative viability", "setting": "NCI-H1944; first compound 0.8 µM", "result": 0.685}, {"measurement": "relative viability", "setting": "NCI-H1944; first compound 8 µM", "result": 0.682}, {"measurement": "relative viability", "setting": "NCI-H1650; first compound 0.08 µM", "result": 0.844}, {"measurement": "relative viability", "setting": "NCI-H1650; first compound 0.253 µM", "result": 0.914}, {"measurement": "relative viability", "setting": "NCI-H1650; first compound 0.8 µM", "result": 0.775}, {"measurement": "relative viability", "setting": "NCI-H1650; first compound 2.53 µM", "result": 0.963}, {"measurement": "relative viability", "setting": "NCI-H1650; first compound 8 µM", "result": 1.09}, {"measurement": "relative viability", "setting": "NCI-H838; first compound 0.08 µM", "result": 1.01}, {"measurement": "relative viability", "setting": "NCI-H838; first compound 0.253 µM", "result": 0.726}, {"measurement": "relative viability", "setting": "NCI-H838; first compound 0.8 µM", "result": 0.856}, {"measurement": "relative viability", "setting": "NCI-H838; first compound 2.53 µM", "result": 0.803}, {"measurement": "relative viability", "setting": "NCI-H838; first compound 8 µM", "result": 0.876}, {"measurement": "relative viability", "setting": "PC-14; first compound 0.08 µM", "result": 0.316}, {"measurement": "relative viability", "setting": "PC-14; first compound 0.253 µM", "result": 0.259}, {"measurement": "relative viability", "setting": "PC-14; first compound 0.8 µM", "result": 0.328}, {"measurement": "relative viability", "setting": "PC-14; first compound 2.53 µM", "result": 0.243}, {"measurement": "relative viability", "setting": "PC-14; first compound 8 µM", "result": 0.343}, {"measurement": "relative viability", "setting": "NCI-H1793; first compound 0.08 µM", "result": 0.635}, {"measurement": "relative viability", "setting": "NCI-H1793; first compound 0.253 µM", "result": 0.785}, {"measurement": "relative viability", "setting": "NCI-H1793; first compound 0.8 µM", "result": 0.493}, {"measurement": "relative viability", "setting": "NCI-H1793; first compound 2.53 µM", "result": 0.483}, {"measurement": "relative viability", "setting": "NCI-H1793; first compound 8 µM", "result": 0.713}, {"measurement": "relative viability", "setting": "LU99A; first compound 0.08 µM", "result": 1.1}, {"measurement": "relative viability", "setting": "LU99A; first compound 0.253 µM", "result": 0.959}, {"measurement": "relative viability", "setting": "LU99A; first compound 0.8 µM", "result": 0.808}, {"measurement": "relative viability", "setting": "LU99A; first compound 2.53 µM", "result": 0.949}, {"measurement": "relative viability", "setting": "LU99A; first compound 8 µM", "result": 0.87}, {"measurement": "relative viability", "setting": "SW 1573; first compound 0.08 µM", "result": 1.14}, {"measurement": "relative viability", "setting": "SW 1573; first compound 0.253 µM", "result": 1.14}, {"measurement": "relative viability", "setting": "SW 1573; first compound 0.8 µM", "result": 1.15}, {"measurement": "relative viability", "setting": "SW 1573; first compound 2.53 µM", "result": 1.04}, {"measurement": "relative viability", "setting": "SW 1573; first compound 8 µM", "result": 0.792}, {"measurement": "relative viability", "setting": "HCC-44; first compound 0.08 µM", "result": 0.943}, {"measurement": "relative viability", "setting": "HCC-44; first compound 0.253 µM", "result": 0.963}, {"measurement": "relative viability", "setting": "HCC-44; first compound 0.8 µM", "result": 0.943}, {"measurement": "relative viability", "setting": "HCC-44; first compound 2.53 µM", "result": 0.946}, {"measurement": "relative viability", "setting": "HCC-44; first compound 8 µM", "result": 0.962}]}
